Literature values, collected in patent publication US8546362B2, “Medicinal cream made using neomycin sulphate, betamethasone valerate, and chitosan, and a process to make the same” (priority 2009, dated 2013).
Where two headings read alike, the source gives them in different places.

How the values were obtained:
Serratia = settings: in vitro
Staphylococcus aureus = settings: in vitro
[1] = test system: indole-positive and indole-negative Proteus; settings: in vitro
[2] = from the peritoneum, draining sinuses, wounds, or surgical sites
Haemophilus influenzae = settings: in vitro
Escherichia coli = settings: in vitro
S. epidermidis = settings: in vitro
Moraxella lacunata = settings: in vitro

Row | Solubility (in acetone) | Solubility (in benzene) | Solubility (in chloroform) | Solubility (in ether) | SMILES | Solubility (in alcohol) | Solubility (in water) | Antimicrobial activity (viruses) | Concentrations that inhibit most susceptible strains (Serratia) | Concentrations that inhibit most susceptible strains (Staphylococcus aureus) | Concentrations that inhibit most susceptible strains [1] | Absorption [2] | Concentrations that inhibit most susceptible strains (Haemophilus influenzae) | Concentrations that inhibit most susceptible strains (Escherichia coli) | Concentrations that inhibit most susceptible strains (S. epidermidis) | Antibacterial activity (streptococci) | Concentrations that inhibit most susceptible strains (Moraxella lacunata) | Antimicrobial activity (fungi) | Antimicrobial activity (most anaerobic bacteria) | Antibacterial activity (Pseudomonas aeruginosa)
1 | freely soluble | slightly soluble | freely soluble | slightly soluble | CCCCC(=O)O[C@]1(C(=O)CO)[C@@H](C)C[C@H]2[C@@H]3CCC4=CC(=O)C=C[C@]4(C)[C@@]3(F)[C@@H](O)C[C@@]21C [Betamethasone Valerate, 9-Fluoro-11β, 17,21-trihydroxy-16β-methylpregna-1,4-diene-3,20-dione 17-valerate] | soluble | practically insoluble |  |  |  |  |  |  |  |  |  |  |  |  | 
2 |  |  |  |  | NC[C@@H]1O[C@H](O[C@H]2[C@@H](O)[C@H](O[C@@H]3[C@@H](O)[C@H](N)C[C@H](N)[C@H]3O[C@H]3O[C@H](CN)[C@@H](O)[C@H](O)[C@H]3N)O[C@@H]2CO)[C@H](N)[C@@H](O)[C@@H]1O [Neomycin] | very slightly soluble | freely soluble | inactive | 1 to 12.5 µg/mL | 1 to 12.5 µg/mL | 1 to 12.5 µg/mL | rapidly absorbed | 1 to 12.5 µg/mL | 1 to 12.5 µg/mL | 1 to 12.5 µg/mL | only minimally active | 1 to 12.5 µg/mL | inactive | inactive | generally resistant
